# In patent publication US11452291B2, “Induction of a physiological dispersion response in bacterial cells in a biofilm” (The Research Foundation for The State University of New York, priority 2007, dated 2022):
# How the values were obtained:
# P. aeruginosa biofilms = experiment: Microtiter plate dispersion bioassay; format: cell-based, Pseudomonas aeruginosa PAO1
# Protocol: Microtiter plate dispersion bioassays were used to test various preparations for their ability to exogenously induce biofilm dispersion. Biofilms were grown on the inside surface of microtiter plate wells using a semi-batch culture method in which the medium within each well was replaced periodically to reduce the accumulation of native dispersion inducing factors. Biofilms grown in this manner were treated with dispersion inducer or sterile medium to release cells into the bulk liquid and evaluate dispersed cell number by measuring optical density. Briefly, sterile polystyrene 96 well plates were etched with acetone for 10 seconds to create a rough surface for the attachment of microbial cells. After drying for 24 hours, plates were inoculated with 150 μL/well of overnight culture containing the test organism, previously diluted 1:20 in growth medium and incubated at 30° C. with shaking at 200 rpm. Medium in the wells was replaced every 24 hours for 5 days and every 12 hours on day 6 and day 7. Medium was then replaced after 7 hours. Dispersion induction was tested by adding 150 μL growth medium containing dispersion inducer for 1 hr at 30° C. or sterile medium as a control. Medium containing dispersed cells was then transferred by pipet to a non-etched microtiter plate and the optical density (OD570) was determined (ELx808 Absorbance Microplate Reader; BioTek Instruments, Inc., Winooski, Vt.). […] Note: Microtiter plate dispersion bioassays were not suitable for determining absolute magnitude of an induced dispersion response because in a semi-batch system, control and test samples are susceptible to natural dispersion against which the activity of exogenous induction is measured. All efficiency studies were performed using biofilm tube reactor or flow-cell continuous culture systems and were based on both total cell counts and viable cell counts.
# [1] = tested on: P. aeruginosa biofilm microcolonies; experiment: Microscopic analysis of mature biofilm in flow cell; format: cell-based, Pseudomonas aeruginosa
# Protocol: A continuous-culture once-through flow cell was configured to observe the growth and development of biofilms attached to a glass substratum. The flow cell was constructed of aluminum containing a chamber 1.0 mm by 1.4 cm by 4.0 cm capped with a glass cover slip. Sterile modified EPRI medium was pumped from a 10-liter vessel through silicone tubing to the flow cell using a Masterflex 8-roller-head peristaltic pump at a flow rate of 0.13 mL/min. Flow through the chamber was laminar, with a Reynolds number of 0.17, having a fluid residence time of 4.3 min. Medium leaving the flow cell was discharged to an effluent reservoir via silicone tubing. The entire system was closed to the outside environment but maintained in equilibrium with atmospheric pressure by a 0.2-μm-pore-size gas-permeable filter fitted to each vessel. […] Each cell cluster was measured to determine its height by focusing from the substratum through to the apex of the cluster, and its width by measurement at the base of the cell cluster using a stage micrometer. Cell clusters were defined as cells embedded within an exopolysaccharide matrix attached to the substratum and lacking motility; void areas within cell clusters were determined by the observation of free-swimming bacteria within a space inside a cell cluster. […]
# [2] = tested on: biofilm cells of Staphylococcus aureus; conditions: cited from earlier work
smiles,measurement,setting,value
CCCCCCC/C=C/C(=O)O [trans-2-decenoic acid],concentration range with dispersion activity,P. aeruginosa biofilms; biofilm cultures grown in microtiter plates,activity only at millimolar concentrations
CCCCCCC/C=C\C(=O)O [cis-2-decenoic acid],dispersion activity compared to un-concentrated spent culture medium,P. aeruginosa biofilms; 1.0 nanomolar,greater dispersion activity at 1.0 nanomolar than un-concentrated spent culture medium
same,time at which microcolony disaggregation begins,[1]; 10 μM added to mature biofilm in flow cell,11 min
same,effect on biofilm microcolony by microscopy,[1]; FIG. 13,completely disrupting a biofilm microcolony
"OCl [chlorine, sodium hypochlorite]",increase in concentration required to kill biofilm cells compared to planktonic cells,[2],600 fold
"CC(C)CCCCCCC/C=C\C(=O)O [DSF, reference compound]",promotion of dispersion of P. aeruginosa,P. aeruginosa biofilms,shown not to promote dispersion
